Assay [1] has as its system Human umbilical vascular endothelial cells. In words: Human umbilical vascular endothelial cell tube formation assay. To be noted: VEGF-induced; at 10 μM; p<0.05 vs stimulated DMSO control. It counts as cell-based. The procedure: Human Umbilical Vascular Endothelial Cell Tube Formation Assay: Compounds were tested in the growth factor-induced HUVEC tube formation assay. The tube formation plates were incubated at 37° C. for 30 minutes for matrigel to polymerize. The HUVECs were starved in 0.1% BSA basal EBM2 medium for 5 hours after washing with the same medium 3 times. The cells were trypsinized and centrifuged. Then 25 μL of 4× serially diluted compounds (10, 1, 0.1, 0.01, 0.001, 0.0001, 0.00001 μM) were added in duplicate with 50 μL of 2×10^4 cells/well to tube formation plates coated with matrigel. […] of 4×VEGF (final concentration=25 ng/mL) or bFGF (final concentration=10 ng/mL) were added to the plates. The cells were then incubated overnight (˜18 hours) at 37° C. in a humidified incubator. The tubule webs were stained with calcein AM at […] in 2% FBS/HBSS for 30 minutes and images taken by fluorescence microscopy. The tubules were quantified by the MetaMorph tube formation software program for tube area and tube length.
The percentage inhibition of cell proliferation, tube formation, migration, and invasion was calculated by subtracting the result for unstimulated DMSO control from test sample results, averaging all replicates, and normalizing to the growth factor-stimulated DMSO control (0% inhibition). The IC50 values were calculated by using GraphPad Prism 5.0.

A further assay has as its system IgM. The experiment in a line: IgM production by SLE patient PBMC (ELISA). To be noted: Homo sapiens, read-out: IgM IC50 (nM) SLE (n = 3). A general note: An ELISA detects its analyte on a solid surface through an enzyme-linked reagent.
For a further assay, the system named is NZBWF1/J mouse. In words: NZBWF1/J mouse model of systemic lupus erythematosus. It counts as in vivo. To be noted: 30 mg/kg; week 4.
The next assay relates to BLIMP-1, XBP-1, and IgJ. In words: Plasmablast lineage factor gene expression (qRT-PCR), SLE patient PBMC. In kind it is cell-based, human. Particulars: 20 nM, n=3. Background: In qPCR the cycle at which signal appears reflects the starting amount.
The test system of a further assay is SSc fibroblasts. In words: Fibrotic gene expression in SSc skin fibroblasts (real time PCR). In kind it is cell-based, human. Particulars: 24 hours. The procedure:
Cell cultures: Human normal and scleroderma skin fibroblasts were cultured in DMEM containing 10% fetal bovine serum (FBS). The cells were maintained in a humidified 5% CO2, 95% air incubator at 37° C. After confluence was reached, the cells were harvested with 0.05% trypsin and subcultured. Cells were used in the 3rd-5th passage.
Experimental design: Cells were grown to 70-80% confluence and placed into quiescent state by a reduction in serum concentration to 0.4% for overnight. The effects of the compound on TGFβ fibrotic effects and on NL and SSc fibrotic gene expression were tested.
Effects of the compound on SSc-FB: SSc fibrobasts were treated with the compound at different concentration and gene expression levels of Collagen 1A1 (COL1), α-smooth muscle actin (α-SMA), fibronectin (FN), matrix metallopeptidase 1 (MMP1), plasminogen activator inhibitor (PAI), and DNA (cytosine-5-)-methyltransferase 1 (Dnmt1) were determined 24 hours later by real time PCR.
Quantitative Real-Time PCR: Total RNA was extracted from cells using RNeasy kit. RNA concentration was measured and 1 ug of RNA was reverse transcribed to cDNA using RT-First strand kit. The cDNA was then amplified using respective primers and Power SYBR Green PCR Master Mix. The amplicon (150-200 bp) was detected by ABI 7500 Real Time PCR System. All the target genes were normalized to GAPDH and relative fold changes were calculated. Each sample was assessed in triplicate.

In another assay the test system is IgG. In words: IgG production in normal B cell / PBMC differentiation cultures (ELISA). Particulars: Homo sapiens.
The next assay concerns H929 cells. In words: H929 cell cycle (S-phase) and survivin, pRB, p27 expression. It counts as cell-based.
The test system of a further assay is IL-2. The experiment in a line: T-cell costimulation: IL-2 production (immobilized anti-CD3, ELISA). In kind it is cell-based. Particulars: Homo sapiens, 48 h, immobilized anti-CD3, 2 days, read-out: EC50 for co-stimulated IL-2 production by T cells. The procedure:
CRBN ubiquitination was measured in HEK293T cells, which were transfected with an amino-terminal His-biotin-tagged CRBN construct, then preincubated with compounds for one hour followed by treatment with the MG132 proteasome inhibitor (to arrest degradation of ubiquitinated proteins). Cells were lysed and processed to measure CRBN ubiquitination by SDS-PAGE and immunoblot analysis using an anti-ubiquitin antibody. Cell proliferation studies were conducted in enalidomide-sensitive and refractory multiple myeloma cells. […] T-cell costimulation was measured in purified primary human T cells stimulated using immobilized anti-CD3 antibody in cell culture for 2 days, and cytokine secretion was measured by ELISA.

Another assay deals with BCL-6, IRF-4 and BLIMP-1. The experiment in a line: Transcription factor protein expression by laser scanning cytometry, SLE patient PBMC. In kind it is cell-based, human. To be noted: CD38+ plasmablast/plasma cells, Day 4 and Day 7 SLE patient PBMC. The procedure:
Preparation Of Cytospin From Single Cell Suspension And Immunofluorescence Staining for iCyte: A cell suspension of not more than 0.5×10^6 cells/ml of 2% FBS-containing PBS was prepared. Up to 200 μl of this suspension was loaded in each cuvette and spinned at 800 rpm for 3 min. The cuvette and the paper were carefully detached without damaging the fresh cytospin and proceeded with either immediate fixation or drying. Unfixed cytospins were stored for max 2 days at room temperature. Cells on slides were fixed with increasing concentrations of EtOH and allowed to dry prior to staining. After blocking non-specific binding with normal serum (species same as secondary antibody), sections were incubated with the mixture of following monoclonal antibodies in a humidified chamber at cool room for overnight: (i) anti-human CD38 as plasmablast cell marker, and (ii) anti-BCL-6, IRF-4, BLIMP-1, PAX5 and XBP-1 for transcription factor proteins. After washings, slides were incubated for 1 hr at room temperature in dark with the mixture of secondary antibodies which were raised in different species (with two different fluorochromes, i.e., Alexa Fluor-488 and Alexa Fluor-633). The slides were then rinsed in PBS, counterstained with DAPI for 20 minutes at room temperature, coverslipped with anti-fade fluorescent mounting medium, and sealed with nail polish. The slides were stored in dark at 4° C. To exclude false positives produced by nonspecific binding of the secondary antibody, all of the tissues were treated in the same manner with buffer substituting for the primary antibody. The color of the antibody staining was observed and quantity was analyzed in the tissue sections using iCyte.

Read-outs that look alike come from different tables or passages of the source.

Experimental for IgG: Step 1—B cell Activation—day 0 through day 4: Prepare fresh B cell cocktail by adding 50 μg/mL of human transferrin to B cell media. (Iscoves+10% PFBS, 1% P/S, and 5 μg/mL human insulin). […] Five milliliters (1×10^5/ml) of CD19+ B cell were added to each well of a 6 well flat-bottom plate (final cell count=5×10^5/well). Five L (lx)±compound/DMSO was added to each test well (0.1% final DMSO) and incubated at 37° C. for 4 days.
Step 2—Plasmablast Generation—day 4 through day 7: Cells were harvested and counted on the cell counter; an aliquot was removed for flow analysis, the remaining cells were washed with PBS. Prepare fresh B cell cocktail by adding 1 μg/ml of human transferrin to B cell media. […] Add B cell differentiation cocktail (final concentration): recombinant human IL-2 (20 U/mL), IL-10 (50 ng/mL), IL-15 (10 ng/mL), IL-6 (50 ng/mL) to cells. Add fresh B cell cocktail and transfer cells back to the original wells and bring volume back to 5 mL. Five L (1×)±compound/DMSO was added to each test well (0.1% final DMSO) and incubated at 37° C. for 4 days.
(§1) Supernatants (from section 8.2.3) were harvested and analyzed by ELISA for IgG and IgM production (ZeptoMetrix Corp. Buffalo, N.Y.).
The data was graphed using GraphPad Prism 5.0 software.
IgM and IgG were measured by ELISA.
Experimental for IgM: as §1
B Cell Differentiation Protocol: Enriched B cells were isolated from fresh buffy-coat (leukocyte enriched units) by Ficoll-Hypaque density gradient centrifugation followed by incubation with EasySep negative selection human B cell enrichment kit (Stem cell technologies). In brief, 2×10^8/ml PBMC were mixed with 4 ml of Robosep buffer and transferred to a 14 mL polystyrene round bottom tube. EasySep Human B cell enrichment cocktail (200 μL) was added per tube, vortexed and incubated at room temperature for 10 minutes. […] After cells were counted, an aliquot was removed for FACS analysis and the remaining cells were used for culture. […]
CD19+ peripheral blood human B cells from normal donors, or total peripheral blood mononuclear cell PBMC for patients with systemic lupus erythematosus (“SLE”), were cultured in the presence of interleukin (“IL”)-2, IL-10, IL15, TLR9 agonist, and CD40 L for 4 days, followed by IL-2, IL-6, IL-10 and IL-15 for another 3 days. Cells were counted, viability assessed, and expression of CD20, CD38, CD44, and CD83 were measured by flow cytometry. Plasmablast lineage factors IRF-4, BLIMP-1, XBP-1, and IgJ, and germinal center markers PAX-5 and BCL-6 were measured by qRT-PCR. […] Secreted immunoglobulins IgG and IgM were measured by ELISA.

Consider `O=C1CC[C@@H](N2Cc3c(OCc4ccc(CN5CCOCC5)cc4)cccc3C2=O)C(=O)N1` [R-enantiomer, (R)-3-[4-(4-morphlin-4-ylmethylbenzyloxy)-1-oxo-1,3-dihydro-isoindo-2-yl]piperidine-2,6-dione], for which, in assay [1], the “tube area and length” value was “significant inhibition”.
Broadly, the IC50 is the concentration needed to halve the response being measured. Usually EC50 stands for the concentration that produces a half-maximal response. Regarding `O=C1CC[C@H](N2Cc3c(OCc4ccc(CN5CCOCC5)cc4)cccc3C2=O)C(=O)N1` [Test compound, (S)-3-[4-(4-morphlin-4-ylmethylbenzyloxy)-1-oxo-1,3-dihydro-isoindo-2-yl]piperidine-2,6-dione], in the assay on IgM, the IC50 was determined as 0.9 nM. For the same molecule, in the assay with NZBWF1/J mouse, the “anti-double stranded DNA autoantibody level, increase” value is recorded as 86%; the “peripheral blood B cells, decrease” value is on record as 25%; the “splenic B cells” value is given as “no change”. In the assay on BLIMP-1, XBP-1, and IgJ, the BLIMP-1 gene expression is listed as 52.8 % of control, the IgJ gene expression was 13.6 % of control and the XBP-1 gene expression is 49.2 % of control. In the assay on SSc fibroblasts, the “expression of COL1 mRNA” value is reported as “dose dependently reduced”, the “expression of Dnmt1” value is on record as “dose dependently reduced”, the “expression of FN mRNA” value was “dose dependently reduced” and the “expression of MMP-1” value is listed as “dose dependently increased”. Also, in the assay with SSc fibroblasts, the “expression of PAI” value is “dose dependently reduced” and the “expression of aSMA mRNA” value is “dose dependently reduced”. In addition, the IC50 in the assay on IgG (B-cell, read-out: secreted IgG production IC50) came out at 1.8 nM. In addition, in the assay on IgG (PBMC, read-out: IgG IC50 (nM) Normal (n = 3)), the IC50 came to 2.1 nM. Moreover, the IC50 in the assay on IgG (read-out: IgG production IC50) was 1.8 nM. Also, the “decrease in cell cycle (S-phase)” value in the assay with H929 cells (24 hours of treatment) came out at 50%. Also, in the assay with H929 cells (48 hours), the “expression of cyclin-dependent kinase inhibitor p27” value is “increased expression”, the “expression of retinoblastoma protein (pRB)” value was “decreased expression” and the expression of survivin entry is “decreased expression”. Moreover, in the assay on IL-2, the EC50 was approximately 0.29 nM. Besides, in the assay on BCL-6, IRF-4 and BLIMP-1, the BCL-6 expression result is “significantly increased”, the BLIMP-1 expression result is given as “inhibited” and the RF-4 expression result is “inhibited”. Also, in the assay with BCL-6, IRF-4 and BLIMP-1 (listed as Compound I-S), the BCL-6 expression result is “increased”, the BLIMP-1 expression entry is recorded as “significantly reduced” and the RF-4 expression result is “significantly reduced”.

The values above are taken from US11524950B2, “Treatment of immune-related and inflammatory diseases” (Celgene Corporation, priority 2012, dated 2022).
